Results published in patent US20120149765A1, “SGK1 AS DIAGNOSTIC AND THERAPEUTIC TARGET” (priority 2003, published 2012).

Experiments:
[1] = tested on: human vascular smooth muscle cells (HAOSMC); assay: procoagulant activity of human vascular smooth muscle cells (thrombin formation in recalcified platelet-poor plasma); type: cell-based; settings: additional administration of thrombin; cells expressing sgk-WT or sgk-MT; effect more pronounced and more rapid with intact kinase
Method: In FIG. 1, the procoagulant activity, in % of the maximum value, is plotted against the time after recalcification. In the experiment relating to FIG. 1, the procoagulant activity of human vascular smooth muscle cells (HAOSMC) was measured by measuring thrombin formation during the coagulation process in recalcified blood platelet-poor plasma (PPP) (Beguin S, Lidhout T, Hemker H C: Throm. Haemost. 61: 25-29, […]). For this, confluent vascular smooth muscle cells were kept for 24 hours in serum-free medium, then washed three times in HEPES-tyrode solution, and then incubated with human PPP. The formation of thrombin was induced by adding 16.7 mM CaCl2 to the incubation medium. In each case 20 μl of the supernatant were removed every one to two minutes and the formation of thrombin in the removed volume was determined using the dye S-2238 (Haemochrom Diagnostica). The optical density was determined at 405 nm in a spectrophotometer (Uvikon, Contron-instruments).

[2] = tested on: tissue factor mRNA (TF mRNA); assay: Northern blot of tissue factor mRNA in human vascular smooth muscle cells; type: cell-based; settings: thrombin 3 U/ml for 4 hours
Method: The cells are human vascular smooth muscle cells equivalent to the cells used in the above experiment. 28S rRNA is loaded on as the internal standard. Human TF cDNA was used as the probe. The cells were in each case treated without and with thrombin (3 U/ml) for 4 hours.

Which “increase in procoagulant activity, in % of the maximum value, against time after recalcification” value [1] does the source give for thrombin here?
The value was “accelerated”.

What about the “transcription of the tissue factor mRNA” value ([2]; cells containing active SGK (W) as compared with control cells) of the same substance?
Its value is “upregulated”.

What about the “transcription of the tissue factor mRNA” value ([2]; cells containing inactive SGK mutant (M)) of the same substance?
Its value is “reduced”.
